How the values were obtained:
Type in all cases: in vivo
[1] = system: redroot pigweed (Amaranthus retroflexus, AMARE); assay: Pre-emerge test, greenhouse herbicide activity screening; conditions: rating scale 0-100, 14 days after application
How it was run: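 Compounds in acetone were track-sprayed at 15-1000 g ai/ha (187 l/ha) on sandy loam pots: pre-emerge one day after seeding, post-emerge at 2-3 leaf stage with 0.25% v/v non-ionic surfactant. Phytotoxicity was rated 14 days later on a 0 (no damage) to 100 (complete death) scale.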

[2] = system: large crabgrass (Digitaria sanguinalis, DIGSA); assay: Post-emerge test, greenhouse herbicide activity screening; conditions: rating scale 0-100 (0 no damage, 100 complete death), 14 days after application
How it was run: (§1)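 Plants grown in 10 cm pots of sandy loam mix received acetone-dissolved compounds through a moving flat-fan nozzle. Doses ranged from 15 to 1000 g ai/ha. Pre-emerge pots were seeded one day earlier, post-emerge pots 8–21 days earlier. Fourteen days on, each pot was graded 0–100 for damage.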

[3] = system: velvetleaf (Abutilon theophrasti, ABUTH); assay: as above; conditions: rating scale 0-100 (0 no damage, 100 complete death), 14 days after application
How it was run: as §1

[4] = system: sicklepod (Cassia obtusifolia, CASOB); assay: as above; conditions: rating scale 0-100 (0 no damage, 100 complete death), 14 days after application
How it was run: as §1

[5] = system: johnsongrass (Sorghum halepense, SORHA); assay: as above; conditions: rating scale 0-100 (0 no damage, 100 complete death), 14 days after application
How it was run: as §1

[6] = system: ivyleaf morningglory (Ipomoea hederacea, IPOHE); assay: as above; conditions: rating scale 0-100 (0 no damage, 100 complete death), 14 days after application
How it was run: as §1

[7] = system: barnyardgrass (Echinochloa crus-galli, ECHCG); assay: as above; conditions: rating scale 0-100 (0 no damage, 100 complete death), 14 days after application
How it was run: as §1

[8] = system: green foxtail (Setaria viridis, SETVI); assay: as above; conditions: rating scale 0-100 (0 no damage, 100 complete death), 14 days after application
How it was run: as §1

[9] = system: lambsquarters (Chenopodium album, CHEAL); assay: as above; conditions: rating scale 0-100 (0 no damage, 100 complete death), 14 days after application
How it was run: as §1

[10] = system: redroot pigweed (Amaranthus retroflexus, AMARE); assay: as above; conditions: rating scale 0-100 (0 no damage, 100 complete death), 14 days after application
How it was run: as §1

[11] = system: large crabgrass (Digitaria sanguinalis, DIGSA); assay: Pre-emerge test, greenhouse herbicide activity screening; conditions: rating scale 0-100, 14 days after application
How it was run: (§2)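 Rating: 0–100 visual injury, 14 DAA. Application: acetone, 187 l/ha, 15–1000 g ai/ha, flat-fan track sprayer with nozzle 40–45 cm above soil or canopy. Post-emerge runs used 0.25% v/v surfactant on 2–3 leaf plants.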

[12] = system: velvetleaf (Abutilon theophrasti, ABUTH); assay: as above; conditions: rating scale 0-100, 14 days after application
How it was run: as §2

[13] = system: sicklepod (Cassia obtusifolia, CASOB); assay: as above; conditions: rating scale 0-100, 14 days after application
How it was run: as §2

[14] = system: johnsongrass (Sorghum halepense, SORHA); assay: as above; conditions: rating scale 0-100, 14 days after application
How it was run: as §2

[15] = system: ivyleaf morningglory (Ipomoea hederacea, IPOHE); assay: as above; conditions: rating scale 0-100, 14 days after application
How it was run: as §2

[16] = system: barnyardgrass (Echinochloa crus-galli, ECHCG); assay: as above; conditions: rating scale 0-100, 14 days after application
How it was run: as §2

[17] = system: green foxtail (Setaria viridis, SETVI); assay: as above; conditions: rating scale 0-100, 14 days after application
How it was run: as §2

[18] = system: lambsquarters (Chenopodium album, CHEAL); assay: as above; conditions: rating scale 0-100, 14 days after application
How it was run: as §2

[19] = system: upland rice (Oryza sp., var. Tebonnet, RICE); assay: Post-emerge test, crop safety; conditions: rating scale 0-100 (0 no damage, 100 complete death), 14 days after application
How it was run: as §1

[20] = system: field corn (Zea mays L., var. Dekalb 535, CORN); assay: Post-emerge test, crop safety; conditions: rating scale 0-100 (0 no damage, 100 complete death), 14 days after application
How it was run: as §1

[21] = system: upland rice (Oryza sp., var. Tebonnet, RICE); assay: Pre-emerge test, crop safety; conditions: rating scale 0-100, 14 days after application
How it was run: (§3)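 Applied at 15–1000 g ai/ha from acetone in 187 l/ha spray volume. Post-emergence applications included 0.25% v/v non-ionic surfactant and reached plants sown 8–21 days before. Pre-emergence applications were incorporated by surface watering. Efficacy or crop damage was rated on a 0–100 scale after 14 days.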

[22] = system: field corn (Zea mays L., var. Dekalb 535, CORN); assay: Pre-emerge test, crop safety; conditions: rating scale 0-100, 14 days after application
How it was run: as §3

## COc1c(Cl)cc(F)c(-n2c(=O)cc(C(F)(F)F)n(C)c2=O)c1CC(Cl)C(=O)OCC(Br)CBr (single isomer, unassigned) [14-31]
[1]; 63 g ai/ha
  Pre-emerge herbicidal activity, phytotoxicity rating AMARE: 70
[1]; 250 g ai/ha
  Pre-emerge herbicidal activity, phytotoxicity rating AMARE: 100
[2]; Rate 63 g ai/ha
  Post-emerge Herbicidal Activity, phytotoxicity rating DIGSA: 95
[2]; Rate 250 g ai/ha
  Post-emerge Herbicidal Activity, phytotoxicity rating DIGSA: 100
[3]; Rate 63 g ai/ha
  Post-emerge Herbicidal Activity, phytotoxicity rating ABUTH: 90
[3]; Rate 250 g ai/ha
  Post-emerge Herbicidal Activity, phytotoxicity rating ABUTH: 100
[4]; Rate 63 g ai/ha
  Post-emerge Herbicidal Activity, phytotoxicity rating CASOB: 50
[4]; Rate 250 g ai/ha
  Post-emerge Herbicidal Activity, phytotoxicity rating CASOB: 50
[5]; Rate 63 g ai/ha
  Post-emerge Herbicidal Activity, phytotoxicity rating SORHA: 0
[5]; Rate 250 g ai/ha
  Post-emerge Herbicidal Activity, phytotoxicity rating SORHA: 20
[6]; Rate 63 g ai/ha
  Post-emerge Herbicidal Activity, phytotoxicity rating IPOHE: 10
[6]; Rate 250 g ai/ha
  Post-emerge Herbicidal Activity, phytotoxicity rating IPOHE: 70
[7]; Rate 63 g ai/ha
  Post-emerge Herbicidal Activity, phytotoxicity rating ECHCG: 100
[7]; Rate 250 g ai/ha
  Post-emerge Herbicidal Activity, phytotoxicity rating ECHCG: 100
[8]; Rate 63 g ai/ha
  Post-emerge Herbicidal Activity, phytotoxicity rating SETVI: 0
[8]; Rate 250 g ai/ha
  Post-emerge Herbicidal Activity, phytotoxicity rating SETVI: 50
[9]; Rate 63 g ai/ha
  Post-emerge Herbicidal Activity, phytotoxicity rating CHEAL: 70
[9]; Rate 250 g ai/ha
  Post-emerge Herbicidal Activity, phytotoxicity rating CHEAL: 90
[10]; Rate 63 g ai/ha
  Post-emerge Herbicidal Activity, phytotoxicity rating AMARE: 90
[10]; Rate 250 g ai/ha
  Post-emerge Herbicidal Activity, phytotoxicity rating AMARE: 100
[11]; 63 g ai/ha
  Pre-emerge herbicidal activity, phytotoxicity rating DIGSA: 0
[11]; 250 g ai/ha
  Pre-emerge herbicidal activity, phytotoxicity rating DIGSA: 90
[12]; 63 g ai/ha
  Pre-emerge herbicidal activity, phytotoxicity rating ABUTH: 0
[12]; 250 g ai/ha
  Pre-emerge herbicidal activity, phytotoxicity rating ABUTH: 70
[13]; 63 g ai/ha
  Pre-emerge herbicidal activity, phytotoxicity rating CASOB: 0
[13]; 250 g ai/ha
  Pre-emerge herbicidal activity, phytotoxicity rating CASOB: 0
[14]; 63 g ai/ha
  Pre-emerge herbicidal activity, phytotoxicity rating SORHA: 0
[14]; 250 g ai/ha
  Pre-emerge herbicidal activity, phytotoxicity rating SORHA: 0
[15]; 63 g ai/ha
  Pre-emerge herbicidal activity, phytotoxicity rating IPOHE: 0
[15]; 250 g ai/ha
  Pre-emerge herbicidal activity, phytotoxicity rating IPOHE: 50
[16]; 63 g ai/ha
  Pre-emerge herbicidal activity, phytotoxicity rating ECHCG: 0
[16]; 250 g ai/ha
  Pre-emerge herbicidal activity, phytotoxicity rating ECHCG: 0
[17]; 63 g ai/ha
  Pre-emerge herbicidal activity, phytotoxicity rating SETVI: 0
[17]; 250 g ai/ha
  Pre-emerge herbicidal activity, phytotoxicity rating SETVI: 0
[18]; 63 g ai/ha
  Pre-emerge herbicidal activity, phytotoxicity rating CHEAL: 40
[18]; 250 g ai/ha
  Pre-emerge herbicidal activity, phytotoxicity rating CHEAL: 50
[19]; Rate 63 g ai/ha
  Post-emerge phytotoxicity rating RICE (crop damage): 0
[19]; Rate 250 g ai/ha
  Post-emerge phytotoxicity rating RICE (crop damage): 0
[20]; Rate 63 g ai/ha
  Post-emerge phytotoxicity rating CORN (crop damage): 10
[20]; Rate 250 g ai/ha
  Post-emerge phytotoxicity rating CORN (crop damage): 50
[21]; 63 g ai/ha
  Pre-emerge phytotoxicity rating, crop damage RICE: 0
[21]; 250 g ai/ha
  Pre-emerge phytotoxicity rating, crop damage RICE: 0
[22]; 63 g ai/ha
  Pre-emerge phytotoxicity rating, crop damage CORN: 0
[22]; 250 g ai/ha
  Pre-emerge phytotoxicity rating, crop damage CORN: 30

## COc1c(Cl)cc(F)c(-n2c(=O)cc(C(F)(F)F)n(C)c2=O)c1CC(C)(Cl)C(=O)OCc1ccccc1 (stereo not shown) [14-41]
[1]; 63 g ai/ha
  Pre-emerge herbicidal activity, phytotoxicity rating AMARE: 100
[1]; 250 g ai/ha
  Pre-emerge herbicidal activity, phytotoxicity rating AMARE: 100
[2]; Rate 63 g ai/ha
  Post-emerge Herbicidal Activity, phytotoxicity rating DIGSA: 100
[2]; Rate 250 g ai/ha
  Post-emerge Herbicidal Activity, phytotoxicity rating DIGSA: 100
[3]; Rate 63 g ai/ha
  Post-emerge Herbicidal Activity, phytotoxicity rating ABUTH: 100
[3]; Rate 250 g ai/ha
  Post-emerge Herbicidal Activity, phytotoxicity rating ABUTH: 100
[4]; Rate 63 g ai/ha
  Post-emerge Herbicidal Activity, phytotoxicity rating CASOB: 0
[4]; Rate 250 g ai/ha
  Post-emerge Herbicidal Activity, phytotoxicity rating CASOB: 0
[5]; Rate 63 g ai/ha
  Post-emerge Herbicidal Activity, phytotoxicity rating SORHA: 40
[5]; Rate 250 g ai/ha
  Post-emerge Herbicidal Activity, phytotoxicity rating SORHA: 70
[6]; Rate 63 g ai/ha
  Post-emerge Herbicidal Activity, phytotoxicity rating IPOHE: 30
[6]; Rate 250 g ai/ha
  Post-emerge Herbicidal Activity, phytotoxicity rating IPOHE: 50
[7]; Rate 63 g ai/ha
  Post-emerge Herbicidal Activity, phytotoxicity rating ECHCG: 100
[7]; Rate 250 g ai/ha
  Post-emerge Herbicidal Activity, phytotoxicity rating ECHCG: 100
[8]; Rate 63 g ai/ha
  Post-emerge Herbicidal Activity, phytotoxicity rating SETVI: 90
[8]; Rate 250 g ai/ha
  Post-emerge Herbicidal Activity, phytotoxicity rating SETVI: 100
[9]; Rate 63 g ai/ha
  Post-emerge Herbicidal Activity, phytotoxicity rating CHEAL: 100
[9]; Rate 250 g ai/ha
  Post-emerge Herbicidal Activity, phytotoxicity rating CHEAL: 100
[10]; Rate 63 g ai/ha
  Post-emerge Herbicidal Activity, phytotoxicity rating AMARE: 100
[10]; Rate 250 g ai/ha
  Post-emerge Herbicidal Activity, phytotoxicity rating AMARE: 100
[11]; 63 g ai/ha
  Pre-emerge herbicidal activity, phytotoxicity rating DIGSA: 50
[11]; 250 g ai/ha
  Pre-emerge herbicidal activity, phytotoxicity rating DIGSA: 100
[12]; 63 g ai/ha
  Pre-emerge herbicidal activity, phytotoxicity rating ABUTH: 90
[12]; 250 g ai/ha
  Pre-emerge herbicidal activity, phytotoxicity rating ABUTH: 100
[13]; 63 g ai/ha
  Pre-emerge herbicidal activity, phytotoxicity rating CASOB: 0
[13]; 250 g ai/ha
  Pre-emerge herbicidal activity, phytotoxicity rating CASOB: 0
[14]; 63 g ai/ha
  Pre-emerge herbicidal activity, phytotoxicity rating SORHA: 0
[14]; 250 g ai/ha
  Pre-emerge herbicidal activity, phytotoxicity rating SORHA: 0
[15]; 63 g ai/ha
  Pre-emerge herbicidal activity, phytotoxicity rating IPOHE: 0
[15]; 250 g ai/ha
  Pre-emerge herbicidal activity, phytotoxicity rating IPOHE: 40
[16]; 63 g ai/ha
  Pre-emerge herbicidal activity, phytotoxicity rating ECHCG: 0
[16]; 250 g ai/ha
  Pre-emerge herbicidal activity, phytotoxicity rating ECHCG: 80
[17]; 63 g ai/ha
  Pre-emerge herbicidal activity, phytotoxicity rating SETVI: 30
[17]; 250 g ai/ha
  Pre-emerge herbicidal activity, phytotoxicity rating SETVI: 100
[18]; 63 g ai/ha
  Pre-emerge herbicidal activity, phytotoxicity rating CHEAL: 100
[18]; 250 g ai/ha
  Pre-emerge herbicidal activity, phytotoxicity rating CHEAL: 100
[19]; Rate 63 g ai/ha
  Post-emerge phytotoxicity rating RICE (crop damage): 20
[19]; Rate 250 g ai/ha
  Post-emerge phytotoxicity rating RICE (crop damage): 95
[20]; Rate 63 g ai/ha
  Post-emerge phytotoxicity rating CORN (crop damage): 100
[20]; Rate 250 g ai/ha
  Post-emerge phytotoxicity rating CORN (crop damage): 100
[21]; 63 g ai/ha
  Pre-emerge phytotoxicity rating, crop damage RICE: 0
[21]; 250 g ai/ha
  Pre-emerge phytotoxicity rating, crop damage RICE: 50
[22]; 63 g ai/ha
  Pre-emerge phytotoxicity rating, crop damage CORN: 0
[22]; 250 g ai/ha
  Pre-emerge phytotoxicity rating, crop damage CORN: 0

— US6355799B1, “Substituted benzene compounds, process for their preparation, and herbicidal and defoliant compositions containing them” (ISK Americas Incorporated, priority 1997, dated 2002)
